These results are taken from patent US6451990B1, “Azithromycin preparation in its noncryst alline and crystalline dihydrate forms” (Astur-Pharma, S.A., priority 1999, dated 2002).

The conditions of data set [1]: cited from earlier work; for hygroscopicity of crystalline form: as described in EP 0,298,650.
A short description of data set [2]: Hygroscopicity: water uptake under an atmosphere over 75% relative humidity. Type of data set: physicochemical. As to conditions: for water content: sample containing 3% water at start, atmosphere over 75% relative humidity. As to the method: 4. Hygroscopicity. Two different samples of non-crystalline azithromycin containing 3% water were kept under an atmosphere over 75% relative humidity. After 8 hours, water content in the first sample was 5.3%, while the second one contained 9.9% water after 72 hours.

Data set [3] deals with gram-positive and some cases of gram-negative bacteria. As to conditions: against gram-positive and some cases of gram-negative bacteria; Kirst, Sides 1989; cited from earlier work.

Read-outs that look alike come from different tables or passages of the source.

For the compound `CC[C@H]1OC(=O)[C@H](C)[C@@H](O[C@H]2C[C@@](C)(OC)[C@@H](O)[C@H](C)O2)[C@H](C)[C@@H](O[C@@H]2O[C@H](C)C[C@H](N(C)C)[C@H]2O)[C@](C)(O)C[C@@H](C)CN(C)[C@H](C)[C@@H](O)[C@]1(C)O` [azithromycin dihydrate, 9-deoxo-9a-aza-9a-methyl-9a-homoerythromycin A dihydrate], the “hygroscopicity of crystalline form” value in data set [1] (dihydrate) is listed as “non-hygroscopic”. In addition, in data set [1] (theoretical value 4.6%), the “percentile water content (kept constant)” value is on record as 4.5-5%. Turning to `CC[C@H]1OC(=O)[C@H](C)[C@@H](O[C@H]2C[C@@](C)(OC)[C@@H](O)[C@H](C)O2)[C@H](C)[C@@H](O[C@@H]2O[C@H](C)C[C@H](N(C)C)[C@H]2O)[C@](C)(O)C[C@@H](C)CN(C)[C@H](C)[C@@H](O)[C@]1(C)O` [non-crystalline azithromycin, non-crystalline 9-deoxo-9a-aza-9a-methyl-9a-homoerythromycin A], in data set [2] (conclusion from water uptake over 75% relative humidity), the Hygroscopicity entry is recorded as “moderately hygroscopic”. The water content in data set [2] (after 8 hours (first sample)) is 5.3%; in data set [2] (after 72 hours (second sample)), 9.9%. Turning to `CC[C@H]1OC(=O)[C@H](C)[C@@H](O[C@H]2C[C@@](C)(OC)[C@@H](O)[C@H](C)O2)[C@H](C)[C@@H](O[C@@H]2O[C@H](C)C[C@H](N(C)C)[C@H]2O)[C@](C)(O)C[C@@H](C)CN(C)[C@H](C)[C@@H](O)[C@]1(C)O` [Azithromycin, 9-deoxo-9a-aza-9a-methyl-9a-homoerythromycin A], in data set [3], the antimicrobial activity entry was “excellent antimicrobial activity”. For the compound `CC[C@H]1OC(=O)[C@H](C)[C@@H](O[C@H]2C[C@@](C)(OC)[C@@H](O)[C@H](C)O2)[C@H](C)[C@@H](O[C@@H]2O[C@H](C)C[C@H](N(C)C)[C@H]2O)[C@](C)(O)C[C@@H](C)CN(C)[C@H](C)[C@@H](O)[C@]1(C)O` [azithromycin monohydrate], the “hygroscopicity of crystalline form” value in data set [1] is “hygroscopic”.
